Test results: patent US20250241906A1, “ANABOLIC DRUGS STIMULATING TYPE II COLLAGEN PRODUCTION FROM CHONDROCYTES OR THEIR PROGENITORS” (UNIVERSITY OF CENTRAL FLORIDA RESEARCH FOUNDATION, INC., priority 2022, published 2025)

Columns and labels:
[1] = tested on: cartilage (destabilized meniscus model); conditions: cited from earlier work
[2] = tested on: NF-κB and JAK2/STAT3 signaling; conditions: monolayer culture; cited from earlier work
[3] = target: type II collagen promoter (COL2A1-Gaussia luciferase) in primary human chondrocytes; test: HuCol2gLuc 3D aggregate type II collagen promoter-driven Gaussia luciferase assay; type: cell-based; conditions: HuCol2gLuc
Experimental: Chondrogenic Culture. Human COL2A1-GLuc or uninfected cells were thawed and seeded in growth media on synoviocyte matrix at 6,000 cells/cm^2 and expanded to 90-100% confluence in physioxia. Cells were trypsinized (0.25% Trypsin/EDTA; Corning), resuspended in growth media (for monolayer culture) or chondrogenic differentiation media for 3D aggregates (93.24% High-Glucose DMEM (Gibco), 1% dexamethasone 10^−5M (Sigma), 1% ITS+premix (Becton-Dickinson), 1% Glutamax (Hyclone), 1% 100 mM Sodium Pyruvate (Hyclone), 1% MEM Non-Essential Amino Acids (Hyclone), 0.26% L-Ascorbic Acid Phosphate 50 mM (Wako), 0.5% Fungizone (Life Technologies) with TGF-β1 (Peprotech) and seeded as described below.
Generation and Maintenance of 3D aggregates. To generate 3D aggregates, cells were seeded at 50,000 cells per well (in 96-well cell repellent u-bottom plates, GreinerBio) and then centrifuged at 500 RCF, 5 min. For the initial drug screen, aggregates were cultured in basal chondrogenic media (1 ng/ml TGF-β1) alone, with DMSO (vehicle control) or 5 μM of the drug compounds from the NCI library (Natural Products V, NCI). For candidate validation and subsequent studies aggregates were cultured in basal chondrogenic media (10 ng/ml TGF-β1) alone, with DMSO (vehicle control) or compounds as indicated in the results. Aggregates were cultured for three weeks in physioxic conditions, culture medium was sampled and replaced three times a week with fresh medium. An OT-2 (Opentrons) python coded robotic pipette, programmed at an aspiration height of 2 mm from the bottom of the wells and aspiration rate of 40 μl/s was utilized for addition of compound, cell feeding, and media sampling for luciferase assay. After three weeks, cell aggregates were either fixed in neutral buffered formalin for histology or medium removed and aggregates frozen dry (−20° C.) for biochemical assays.
(§1) Luciferase Assay. Conditioned culture medium sampled from aggregates in 96-wells (20 μL/well) was assessed using a stabilized Gaussia Luciferase buffer mix (50 µl/well) for a final concentration of 0.09 M MES, 0.15M Ascorbic Acid, and 4.2 μM Coelenterazine in white 96-well plates. Luminescence was measured in a plate reader (25° C., relative light units (RLU), En Vision plate reader). An OT-2 (Opentrons) python coded robotic pipette was utilized for luciferase buffer addition to white plates (GreinerBio).

[4] = target: type II collagen promoter (COL2A1-GLuc) in primary rabbit chondrocytes; test: COL2A1-GLuc primary rabbit chondrocyte 3D aggregate luciferase assay; type: cell-based; conditions: 0-10 ng/ml
Experimental: Chondrogenic Culture. Rabbit COL2A1-GLuc were thawed and seeded in growth media at 6000 cells/cm^2 and expanded to 90-100% confluence in physioxia. Cells were trypsinized (0.25% Trypsin/EDTA; Corning), resuspended in basal chondrogenic media (93.24% High-Glucose DMEM (Gibco), 1% dexamethasone 10^−5 M (Sigma), 1% ITS+premix (Becton-Dickinson), 1% Glutamax (Hyclone), 1% 100 mM Sodium Pyruvate (Hyclone), 1% MEM Non-Essential Amino Acids (Hyclone), 0.26% L-Ascorbic Acid Phosphate 50 mM (Wako), 0.5% Fungizone (Life Technologies) with TGF-β1 (Peprotech) and seeded as described below.
Generation and Maintenance of 3D Aggregates. To generate 3D aggregates, cells were seeded at 50,000 cells per well (in 96-well cell repellent u-bottom plates, GreinerBio) and then centrifuged at 500 RCF, 5 min. For the TGF-β1 dose response studies, that serve as positive controls for the reporter cells, aggregates were cultured in basal chondrogenic media and different concentrations of TGF-β1 ranging from 0-10 ng/ml. For the DoE studies, aggregates were cultured in basal chondrogenic media (1 ng/ml TGF-β1) as a control or basal media supplemented with vitamins and minerals (Table 3 and Table 5). Plates were cultured for three weeks in physioxia, media was sampled and replaced three times a week with respective medium. An OT-2 (Opentrons) python coded robotic pipette, programmed at an aspiration height of 2 mm from the bottom of the wells and aspiration rate of 40 μl/s was utilized for media preparation, cell feeding, and media sampling for luciferase assay. After three weeks, cell aggregates were either fixed in neutral buffered formalin for histology or medium removed and aggregates frozen dry (−20° C.) for biochemical assays.
as §1, with “Cell” for “Conditioned”, “the seeded” for “aggregates in”, “at” for “mix (50 µl/well) for”, “units,” for “units (RLU),”

[5] = target: PRG4 (lubricin) promoter in primary human chondrocytes; test: HuPRG4gLuc aggregate lubricin promoter-driven Gaussia luciferase assay, TGFβ1 dose response; type: cell-based; conditions: 0-40 ng/mL
Experimental: HuPRG4gLuc reporter cell aggregate culture and TGFβ1 dose response. HuPRG4gLuc reporter chondrocytes were thawed from frozen stocks and seeded onto synoviocyte derived matrix coated flasks to expand to confluence (˜5 days, 37° C., 5% CO2 and 5% O2). Upon confluence, cells were trypsinized (0.25% Trypsin/EDTA, 5 min, 37° C.), neutralized with growth media (DMEM/F12 (Gibco) supplemented with 10% FBS (mesenchymal stromal cell selected and 1% penicillin-streptomycin (Hyclone)), then centrifuged (5 min, 500 RCF, room temperature [RT]). Cells were then resuspended in defined chondrogenic media (DMEM-HG 93.24% (Lonza), 1% 10^−5 M dexamethasone (Sigma), 1% ITS+premix (Becton-Dickinson), 1% Glutamax (Hyclone), 1% 100 mM Sodium Pyruvate (Hyclone), 1% MEM Non-Essential Amino Acids (Hyclone), 0.26% 50 mM L-Ascorbic Acid Phosphate (Wako), 0.5% Fungizone (Life Technologies)), and seeded (50,000 cells/well) onto a non-adherent 96-well plate (Greiner Bio), then centrifuged to form cell aggregates (5 min, 500 RCF, RT). […] Media containing the secreted Gaussia luciferase was sampled twice a week for luminescence (section 2.3). […]
Luciferase assessment. As previously described, during the 22-day culture period, luminescence was assessed twice a week. […] Luminescence was read on a plate reader (PerkinElmer EnVision 2104 Multilabel Reader.

[6] = tested on: HuPRG4gLuc aggregates; test: Biochemical assays on HuPRG4gLuc aggregates; type: cell-based, human; conditions: day 22
Experimental: Biochemical assays. As previously described, frozen samples were digested in papain (0.025 mg/mL papain in 50 mM sodium phosphate, 2 mM EDTA, 2 mM cysteine) overnight. Hoechst dye was used to quantify the DNA content of the digest, with calf thymus DNA (Sigma) as the standard. Samples were read on a plate reader (Ex365, Em460 nm, SpectraMax iD5, Molecular Devices). Dimethylmethylene blue (5 ml of 3.2 mg/mL DMMB dissolved in 200 proof ethanol added to 1L of 40 mM glycine, 40 mM NaCl at pH 1.5) colorimetric assay was used to quantify GAG content of the digest with absorbance readings at 525 nm and 595 nm (correction). Hydroxyproline (HDP) content was measured for total collagen quantification. Papain digested samples were acid hydrolyzed overnight (10:1 vol/vol, 6M HCl, 110° C.) and then dried overnight (70° C.). Copper sulfate (0.15M) and NaOH (2.5M) were added and incubated (50° C., 5 minutes). Oxidation occurred through 10-minute incubation with hydrogen peroxide (6% H2O2, 50° C.). Sulfuric acid was added (1.5M H2SO4) prior to reaction with Ehrlich's reagent (10% w/v 4-dimethylamino benzaldehyde in 60% isopropanol, 26% perchloric acid, 14% MΩ water) for a final incubation (70° C., 16 minutes). Absorbance was read at 505 nm (SpectraMax iD5, Molecular Devices) with hydroxyproline standard curve generated using hydroxyproline (Sigma). […]

Molecule | decrease in OARSI score [1] [%] | NF-κB and JAK2/STAT3 signaling [2] | EC50 luminescence ([3]; donor 2, day 7) [ng/mL] | EC50 luminescence ([3]; donor 2, day 21) [ng/mL] | EC50 luminescence ([3]; first donor, day 8, 0-100 ng/ml) [ng/mL] | EC50 luminescence ([3]; first donor, day 17) [ng/mL] | EC50 luminescence ([4]; Day 7) [ng/mL] | EC50 luminescence ([4]; Day 21) [ng/mL] | EC50 luminescence ([5]; day 10) [ng/mL] | EC50 luminescence ([5]; day 22) [ng/mL] | EC50 DNA [6] [ng/mL] | EC50 GAG/DNA [6] [ng/mL]
NCCc1ccc(O)c(O)c1 [dopamine] | 50 | inhibition of NF-κB and JAK2/STAT3 signaling | – | – | – | – | – | – | – | – | – | –
TGFβ1: transforming growth factor beta 1, known stimulator of chondrogenesis, type II collagen and lubricin [reference compound] | – | – | 0.142 | 1.868 | 0.780 | 2.702 | 0.17 | 0.10 | 2.5 | 4.2 | 2.8 | 4.8
